Laboratory results as given in US5574012A, “Analogs of hirudin having anti-platelet activity” (Merrell Pharmaceuticals Inc., priority 1995, dated 1996).
pIC50: −log10 of the molar value.

What was measured:
platelets = assay: Dog antiplatelet IC50; format: cell-based
thrombin = thrombin (Bos taurus, UniProt P00735); assay: biochemical; conditions: bovine; read-out: Bovine Antithrombin IC50

| SMILES | pIC50 (platelets) | pIC50 (thrombin) |
| --- | --- | --- |
| CC[C@H](C)[C@H](NC(=O)[C@@H]1CCCN1C(=O)[C@H](CCC(=O)O)NC(=O)[C@H](Cc1c[nH]c2ccccc12)NC(=O)[C@H](CC(=O)O)NC(=O)CNC(=O)CCCCN)C(=O)N1CCC[C@H]1C(=O)N[C@@H](CCC(=O)O)C(=O)N[C@@H](CCC(=O)O)C(=O)N[C@@H](C)C(=O)N[C@@H](CC1CCCCC1)C(=O)N[C@H](CCC(=O)O)C(=O)O [Example 2] | 3.60 |  |
| CC[C@H](C)[C@H](NC(=O)[C@@H]1CCCN1C(=O)[C@H](CCC(=O)O)NC(=O)[C@H](Cc1c[nH]c2ccccc12)NC(=O)[C@H](CC(=O)O)NC(=O)CNC(=O)[C@@H](N)CCCNC(=N)N)C(=O)N1CCC[C@H]1C(=O)N[C@@H](CCC(=O)O)C(=O)N[C@@H](CCC(=O)O)C(=O)N[C@@H](C)C(=O)N[C@@H](CC1CCCCC1)C(=O)N[C@H](CCC(=O)O)C(=O)O [Example 3] |  | 5.55 |
